The values that follow come from patent US12568982B2, “Systems for retaining potency in an infused beverage” (Vertosa Inc., priority 2020, dated 2026).

Type in all cases: physicochemical
A short description of data set [1]: THC potency loss in glass bottle with child-resistant cap at room temperature. The text has this:
The concentration of the antioxidant was studied to ensure the antioxidant will last long enough to protect against THC degradation.

Data set [2] can be described thus: Oil-phased versus water-phased antioxidants, THC potency loss at 40° C. Conditions: polysorbate emulsion, antioxidant 0.01%, glass bottle with crown cap. The text has this:
There are two major types of antioxidants depending on their solubility: oil-phased antioxidants and water-phased antioxidants. The oil-phased antioxidants usually exist within the emulsion droplet and water-phased antioxidants are usually added during beverage production. It was believed that both types of antioxidants should work since they follow similar mechanisms: both function as a sacrificial agent to be oxidized prior to oxidation of the API, or they function as chelating agents where they scavenge the metal ions that catalyze oxidation. […] An emulsion was produced using polysorbate, shown as Emulsion 1 in Table 3. The antioxidant concentration was targeted at 0.01%.

Data set [3] is described as follows: Water-soluble antioxidant standard protocol, THC potency decay at 40° C. To be noted: for THC potency loss at 10 weeks with combined antioxidants: Polysorbate Emulsion 1. As for the experimental part:
The study was done with standard protocol: 20 mg THC nanoemulsion was diluted in 12 oz purified water into an amber glass bottle which was finished with a crown cap. The nanoemulsion was produced using polysorbate as an emulsifier with 50 nm droplet size (See Emulsion 1 from Table 3). The pH of the solution was adjusted to 4.0. The water-soluble antioxidants were added into the final solution at 0.005% (50 ppm).
All the testing above was based on the THC nanoemulsion made with polysorbate as an emulsifier (see Emulsion 1 from Table 3). Two other THC emulsions were produced with polyglycerol and Q-Naturale (see Emulsion 3 and 4 from […]).
The three oil soluble antioxidants were all targeted at 0.01% (100 ppm).

Data set [4] is described as follows: Contact angle of liquids on aluminum can liner (hydrophobicity study). Conditions: Krüss contact angle machine; flattened liner side of aluminum can. As for the experimental part: For hydrophobicity studies, a Krüss contact angle machine was used. An aluminum can was cut in half, and the flattened liner side was used as the testing surface. The contact angle of water, coconut oil, coconut oil+THC at different ratios, and coconut oil+CBD at different ratios on the liner was measured.

The nature of data set [5]: Terpene oxidation with ascorbic acid or EDTA at 40° C. An excerpt: However, nearly all terpenes can be oxidized and some can oxidize faster than others. When terpenes are put into a ready-to-drink beverage, the chemical degradation that can be caused by oxidation needs to be considered. When the oxidation happens, it not only diminishes the designed effect of the product, but it also creates unknown by-products that can be potentially harmful to consume. Oxidation rate of α-pinene and limonene was compared with the addition of ascorbic acid and EDTA.

[6] abbreviates: 20 mg THC polysorbate nanoemulsion in 12 oz water, pH 4.0, amber glass, 40° C., antioxidant 0.005% (50 ppm).
Setting [7] is: oil-soluble antioxidant at 100 ppm + 10 ppm EDTA.
Where [8] appears, read: oil-soluble antioxidant at 100 ppm + 50 ppm Ascorbic Acid.

For `O=C1O[C@H]([C@@H](O)CO)C(O)=C1O` [Ascorbic Acid, ascorbic acid], the “THC potency loss %” value in data set [1] (Ascorbic acid 20 ppm, 6 months at room temperature) was 21%; in data set [1] (Ascorbic acid 20 ppm, 12 months at room temperature) it was 35%; in data set [1] (Ascorbic acid 50 ppm, 6 months at room temperature) it was 7%; in data set [1] (Ascorbic acid 50 ppm, 12 months at room temperature), 10%; in data set [1] (Ascorbic acid 200 ppm, 6 months at room temperature), 3%; in data set [1] (Ascorbic acid 200 ppm, 12 months at room temperature), 7%. For the same compound, the “THC loss at 10 weeks” value in data set [2] is on record as 17%.
`O=C(O)CN(CCN(CC(=O)O)CC(=O)O)CC(=O)O` [EDTA, Ethylenediaminetetraacetic acid]: the “THC potency loss %” value in data set [1] (EDTA 5 ppm, 6 months at room temperature) came to 16%; in data set [1] (EDTA 5 ppm, 12 months at room temperature), 39%; in data set [1] (EDTA 10 ppm, 6 months at room temperature), 8%; in data set [1] (EDTA 10 ppm, 12 months at room temperature), 12%; in data set [1] (EDTA 20 ppm, 6 months at room temperature) it was 6%; in data set [1] (EDTA 20 ppm, 12 months at room temperature) it was 9%.
As for `O=C(O)c1cc(O)c(O)c(O)c1` [Gallic acid], in data set [3] (setting [6]), the “THC loss at 4 weeks” value was 10% and the “THC loss at 10 weeks” value worked out at 27%.
Turning to `CCCOC(=O)c1cc(O)c(O)c(O)c1` [Propyl Gallate, propyl gallate], the “THC potency loss at 10 weeks with combined antioxidants” value (from here on “THC potency loss at 10 weeks”) in data set [3] (setting [7]) is 6%; in data set [3] (setting [8]) it was 7%.
With `CCCCCc1cc(O)c2c(c1)OC(C)(C)[C@@H]1CCC(C)=C[C@@H]21` [THC, Tetrahydrocannabinol], the “THC potency loss %” value in data set [1] (No antioxidant, 6 months at room temperature, child resistant cap type 1) is reported as 56%; in data set [1] (No antioxidant, 12 months at room temperature, child resistant cap type 1), 78%.
With `O` [Water], the “Contact Angle on Liner” value in data set [4] turned out to be 85°.
As to `C=C(C)[C@H]1CC=C(C)CC1` [limonene], the “2-weeks potency loss at 40° C.” value in data set [5] (10 ppm EDTA) stood at 8%; in data set [5] (50 ppm ascorbic acid) it was 7%; in data set [5] (No antioxidant), 68%.
The matching figures for `C=CC(C)(O)CCC=C(C)C` (stereo not drawn) [linalool]: 9%, 6% and 46%.
Regarding `C=CC(=C)CCC=C(C)C` [myrcene], the results for the “2-weeks potency loss at 40° C.” value in data set [5] (10 ppm EDTA), in data set [5] (50 ppm ascorbic acid) and in data set [5] (No antioxidant) were 6%, 3% and 38%, respectively.
The matching figures for `CC1=CCC2CC1C2(C)C` (stereo not drawn) [α-pinene]: 6%, 4% and 57%.
In the case of tocopherol [Vitamin E (tocopherol)], the “THC potency loss at 10 weeks” value in data set [3] (setting [7]) is on record as 7%. Besides, the “THC potency loss at 10 weeks” value in data set [3] (setting [8]) is reported as 6%. Further, in data set [2], the “THC loss at 4 weeks” value is reported as 25% and the “THC loss at 10 weeks” value came to 46%.
